Measurements taken from patent US20160176867A1, “MODIFIED BET-PROTEIN-INHIBITING DIHYDROQUINOXALINONES AND DIHYDROPYRIDOPYRAZINONES” (BAYER PHARMA AKTIENGESELLSCHAFT, priority 2013, published 2016).

Tests used:
[1] = molecular target: T1, BRD4 bromo domain 1 [BRD4(1)] (Homo sapiens, UniProt O60885); assay: BRD4/acetylated peptide H4 binding assay (TR-FRET), BRD4 bromo domain 1; conditions: inhibition of BRD4(1)/Ac-H4 peptide interaction
T1 construct: N-terminally His6-tagged BRD4(1) (amino acids 67-152); made in house; host or cells: E. coli
Excerpt: (§1) Protein-Protein Interaction Assay: BRD4/Acetylated Peptide H4 Binding Assay
To assess the BRD4(1) binding strength of the substances described in this application, the ability thereof to inhibit the interaction between BRD4(1) and acetylated histone H4 in a dose-dependent manner was quantified.
(§2) For this purpose, a time-resolved fluorescence resonance energy transfer (TR-FRET) assay was used, which measures the binding between N-terminally His6-tagged BRD4(1) (amino acids 67-152) and a synthetic acetylated histone H4 (Ac-H4) peptide with sequence GRGK(Ac)GGK(Ac)GLGK(Ac)GGAK(Ac)RHGSGSK-biotin. The recombinant BRD4(1) protein produced in-house according to Filippakopoulos et al., Nature, 2010, 468:1119-1123 and Cell, 2012, 149:214-231, was expressed in E. coli and purified by means of (Ni-NTA) affinity and (Sephadex G-75) size exclusion chromatography. The Ac-H4 peptide can be purchased, for example, from Biosyntan (Berlin, Germany).
(§3) In the assay, typically 11 different concentrations of each substance (0.1 nM, 0.33 nM, 1.1 nM, 3.8 nM, 13 nM, 44 nM, 0.15 μM, 0.51 μM, 1.7 μM, 5.9 μM and 20 μM) were analysed as duplicates on the same microtitre plate. For this purpose, 100-fold concentrated solutions in DMSO were prepared by serial dilutions (1:3.4) of a 2 mM stock solution into a clear, 384-well microtitre plate (Greiner Bio-One, Frickenhausen, Germany). From this, 50 nl were transferred into a black test plate (Greiner Bio-One, Frickenhausen, Germany). The test was started by the addition of 2 μl of a 2.5-fold concentrated BRD4(1) solution (final concentration typically 10 nM in the 5 μl of reaction volume) in aqueous assay buffer [50 mM HEPES pH 7.5, 50 mM sodium chloride (NaCl), 0.25 mM CHAPS and 0.05% serum albumin (BSA)] to the substances in the test plate. This was followed by a 10-minute incubation step at 22° C. for the pre-equilibration of putative complexes between BRD4(1) and the substances.
(§4) The mixture was then incubated in the dark at 22° C. for one hour and then at 4° C. for at least 3 hours and for no longer than overnight. The formation of BRD4(1)/Ac-H4 complexes was determined by the measurement of the resonance energy transfer from the streptavidin-Eu cryptate to the anti-6His-XL665 antibody present in the reaction. For this purpose, the fluorescence emission was measured at 620 nm and 665 nm after excitation at 330-350 nm in a TR-FRET measuring instrument, for example a Rubystar or Pherastar (both from BMG Lab Technologies, Offenburg, Germany) or a Viewlux (Perkin-Elmer). The ratio of the emissions at 665 nm and at 622 nm was taken as an indicator of the amount of BRD4(1)/Ac-H4 complexes formed.
(§5) The data (ratios) obtained were normalized, with 0% inhibition corresponding to the mean from the measurements for a set of controls (typically 32 data points) in which all the reagents were present. In these, in place of test substances, 50 nl of DMSO (100%) were used. Inhibition of 100% corresponded to the mean from the measurements for a set of controls (typically 32 data points) in which all the reagents except BRD4(1) were present. The IC50 was determined by regression analysis based on a 4-parameter equation (minimum, maximum, IC50, Hill; Y=max+(min−max)/(1+(X/IC50)Hill)).

[2] = molecular target: T2, BRD4 bromo domain 2 [BRD4(2)] (Homo sapiens, UniProt O60885); assay: BRD4/acetylated peptide H4 binding assay (TR-FRET), BRD4 bromo domain 2; conditions: inhibition of BRD4(2)/Ac-H4 peptide interaction
T2 construct: N-terminally His6-tagged BRD4(2) (amino acids 357-445); made in house; host or cells: E. coli
Excerpt: as §1
To assess the BRD4(2) binding strength of the substances described in this application, the ability thereof to inhibit the interaction between BRD4(2) and acetylated histone H4 in a dose-dependent manner was quantified.
as §2, with “BRD4(2)” for “BRD4(1)”, “357-445)” for “67-152)”, “SGRGK(Ac)GGK(Ac)GLGK(Ac)GGAK(Ac)RHRKVLRDNGSGSK-biotin.” for “GRGK(Ac)GGK(Ac)GLGK(Ac)GGAK(Ac)RHGSGSK-biotin.”
as §3, with “concentrated BRD4(2)” for “concentrated BRD4(1)”, “typically 100” for “typically 10”, “chloride (NaCl); 50 mM potassium fluoride (KF);” for “chloride (NaCl),”, “between BRD4(2)” for “between BRD4(1)”, “substances. Subsequently, 3 μl of a 1.67-fold concentrated solution (in assay buffer) consisting of Ac-H4 peptide (83.5 nM) and TR-FRET detection reagents [83.5 nM anti-6His-XL665 (Cisbio Bioassays, Codolet, France) and 12.52 nM streptavidin-Eu), (Perkin Elmer, #W1024)] in assay buffer were added.” for “substances.”
as §4, with “BRD4(2)/Ac-H4” for “BRD4(1)/Ac-H4”, “chelate” for “cryptate”
as §5, with “BRD4(2)” for “BRD4(1)”

Row | IC50 [1] | IC50 [2] | Compound
1 | 232 nM | 315 nM | C[C@@H]1C(=O)N(C)c2ccc(Nc3cccc(S(=O)(=O)N4CCN(C)CC4)c3)cc2N1C1CCOCC1 [Example 71, (3R)-1,3-dimethyl-6-({3-[(4-methylpiperazin-1-yl)sulphonyl]phenl}-amino)-4-(tetrahydro-2H-pyran-4-yl)-3,4-dihydroquinoxalin-2(1H)-one]
2 | 617 nM | 195 nM | COCCN1c2nc(Nc3cccc(C(=O)N[C@H]4CC[C@H](N5CCN(CC6CC6)CC5)CC4)c3)ccc2N(C)C(=O)[C@H]1C [Example 101, N-{trans-4-[4-(cyclopropylmethyl)piperazin-1-yl]cyclohexyl}-3-{[(3R)-4-(2-methoxyethyl)-1,3-dimethyl-2-oxo-1,2,3,4-tetrahydropyrido-[2,3-b]pyrazin-6-yl]amino}benzamide]
3 | 206 nM | 178 nM | C[C@@H]1C(=O)N(C)c2ccc(Nc3cccc(C(=O)N4CCN(C)CC4)c3)nc2N1C1CCNCC1 [Example 130, (3R)-1,3-dimethyl-6-({3-[(4-methylpiperazin-1-yl)carbonyl]phenyl}amino)-4-(piperidin-4-yl)-3,4-dihydropyrido[2,3-b]pyrazin-2(1H)-one]
4 | 1290 nM | 320 nM | CC1C(=O)N(C)c2ccc(N(C)c3cccc(S(=O)(=O)N(C)C)c3)cc2N1Cc1ccccc1 (centres unmarked) [Example 110, 3-[(4-benzyl-1,3-dimethyl-2-oxo-1,2,3,4-tetrahydroquinoxalin-6-yl)(methyl)amino]-N,N-dimethylbenzenesulphon-amide]

Continued, compound first:

Row | Compound | IC50 [1] | IC50 [2]
5 | C[C@@H]1C(=O)N(C)c2ccc(N(C)c3cccc(S(=O)(=O)N(C)C)c3)cc2N1C1CCN(C(=O)OC(C)(C)C)CC1 [Example 70, tert-butyl 4-[(2R)-7-{[3-(dimethylsulphamoyl)-phenyl](methyl)amino}-2,4-dimethyl-3-oxo-3,4-dihydroquinoxalin-1(2H)-yl]piperidine-1-carboxylate] | 749 nM | 384 nM
6 | COCCN1c2nc(Nc3cccc(C(=O)N4CCN(C)CC4)c3)ccc2N(C)C(=O)[C@H]1C (stereo in doubt) [Example 117, (3R)-4-(2-methoxyethyl)-1,3-dimethyl-6-({3-[(4-methylpiperazin-1-yl)carbonyl]phenyl}amino)-3,4-dihydropyrido[2,3-b]pyrazin-2(1H)-one] | 489 nM | 434 nM
7 | C[C@@H]1C(=O)N(C)c2ccc(Nc3cccc(S(=O)(=O)N4CCN(C)CC4)c3)nc2N1C1CCN(C(=O)OC(C)(C)C)CC1 [Example 62, tert-butyl 4-[(3R)-1,3-dimethyl-6-({3-[(4-methylpiperazin-1-yl)sulphonyl]phenyl}-amino)-2-oxo-2,3-dihydropyrido[2,3-b]pyrazin-4(1H)-yl]piperidine-1-carboxylate] | 256 nM | 133 nM
8 | COCCN1c2nc(Nc3cccc(C(=O)N4CCN(C)CC4)c3)ccc2N(C)C(=O)[C@@H]1C (stereo in doubt) [Example 118, (3S)-4-(2-methoxyethyl)-1,3-dimethyl-6-({3-[(4-methylpiperazin-1-yl)carbonyl]phenyl}amino)-3,4-dihydropyrido[2,3-b]pyrazin-2(1H)-one] | 18200 nM | > 40000 nM
9 | COc1ccc(C(=O)NCCN(C)C)cc1Nc1ccc2c(n1)N(C1CCOCC1)[C@H](C)C(=O)N2C [Example 19, N-2-(Dimethylamino)ethyl-3-{[(3R)-1,3-dimethyl-2-oxo-4-(tetrahydro-2H-pyran-4-yl)-1,2,3,4-tetrahydropyrido[2,3-b]pyrazin-6-yl]amino}-4-methoxybenzamide] | 234 nM | 132 nM
10 | C[C@H]1C(=O)N(C)c2ccc(Nc3cccc(C(=O)NC4CCN(C)CC4)c3)nc2N1c1ccc(F)cc1 (stereo in doubt) [Example 116, 3-{[(3S)-4-(4-fluorophenyl)-1,3-dimethyl-2-oxo-1,2,3,4-tetrahydropyrido[2,3-b]pyrazin-6-yl]amino}-N-(1-methylpiperidin-4-yl)benzamide] | 6750 nM | > 40000 nM
11 | CC(C)N1CCN(C(=O)c2cccc(Nc3ccc4c(n3)N(C3CCCCC3)[C@H](C)C(=O)N4C)c2)CC1 [Example 85] | 314 nM | 189 nM
12 | C[C@@H]1C(=O)N(C)c2ccc(Nc3cccc(C(=O)N[C@H]4CC[C@H](N5CCN(CC6CC6)CC5)CC4)c3)cc2N1C1CCOCC1 [Example 108, N-{trans-4-[4-(cyclopropylmethyl)piperazin-1-yl]cyclohexyl}-3-{[(3R)-1,3-dimethyl-2-oxo-4-(tetrahydro-2H-pyran-4-yl)-1,2,3,4-tetrahydroquinoxalin-6-yl]amino}benzamide] | 575 nM | 520 nM
13 | C[C@@H]1C(=O)N(C)c2ccc(Nc3cccc(C(=O)N[C@H]4CC[C@H](N5CCN(CC6CC6)CC5)CC4)c3)cc2N1Cc1c(F)cccc1F [Example 22, N-{trans-4-[4-(Cyclopropylmethyl)piperazin-1-yl]cyclohexyl}-3-{[4-(2,6-difluorobenzyl)-1,3-dimethyl-2-oxo-1,2,3,4-tetrahydroquinoxalin-6-yl]amino}benzamide] | 708 nM | 157 nM
